According to PubChem BioAssay AID743092 (The Scripps Research Institute Molecular Screening Center, 2013):
Activity calls are given as the source filed them. How the calls were made is not given here.

These molecules were tested on counterscreen cell line, fluorescence, non-specific activators (assay: nonselective activators, counterscreen cells – cell-based, fluorescence, late stage, counter-screen for GalR3 antagonist project, dose response (AID 743092)).
In the case of `CCN(CC)S(=O)(=O)c1cc(NC(=O)CNc2cccc(S(=O)(=O)N3CCOCC3)c2)ccc1C`, the IC50 is reported as > 29.9 µM (inactive). `Cc1ccccc1-c1cc(C(=O)Nc2sc(C(=O)OC(C)C)c(C)c2C#N)c2ccccc2n1` was tested, and the IC50 was > 29.9 µM (inactive). With `Cc1cc(C)nc(SCC(=O)Nc2ccnc3ccccc23)n1` the IC50 was > 29.9 µM (inactive). With `Cc1cc(C(=O)CSc2nc(N)cc(=O)[nH]2)c(C)n1-c1ccc(OC(F)F)cc1` the IC50 was > 29.9 µM (inactive). With `Cc1nn(C)c(C)c1CN(C)S(=O)(=O)c1ccc2ccccc2c1` the IC50 was > 29.9 µM (inactive). `CC(C)(C)CN1CCN(Cc2nc(-c3ccc(F)cc3)cs2)CC1CCO` (configuration not stated) was tested, and the IC50 was > 29.9 µM (inactive). For `Nc1nonc1-n1nnc(C(=O)N/N=C/c2cc(Br)ccc2O)c1CSC1=NCCS1`, the IC50 was > 29.9 µM (inactive). For `O=C(CSc1nnnn1C1CC2CCC1C2)Nc1ccnc2ccccc12` (configuration not stated), the IC50 was > 29.9 µM (inactive). For `COc1ccc(NS(=O)(=O)c2ccc(NC(=O)c3ccc(CN4CCOCC4)cc3)cc2)cc1`, the IC50 was > 29.9 µM (inactive). In the case of `COc1cc2c(cc1OC)[C@@H]1C(=O)c3ccc4c(c3O[C@@H]1CO2)C[C@H](C(C)C)O4`, the IC50 is reported as > 29.9 µM (inactive). In the case of `Cc1ccccc1Cn1c(C)nc2ccccc21`, the IC50 is reported as > 29.9 µM (inactive). `Cc1nn(C)c(Cl)c1NC(=O)OCc1ccc(Cl)cc1Cl` was tested, and the IC50 was > 29.9 µM (inactive). With `Cc1nc2ccccc2n1Cc1ccc(Cl)cc1` the IC50 was > 29.9 µM (inactive). For `CCCCCn1c(=O)[nH]c2cc(C(=O)N3CCN(Cc4ccc5c(c4)OCO5)CC3)ccc2c1=O`, the IC50 was > 29.9 µM (inactive). `CC(=O)c1cn(CC(=O)NCCc2c[nH]c3ccccc23)c2ccccc12` was tested, and the IC50 was > 29.9 µM (inactive). In the case of `Cc1oc(-c2ccc(Cl)cc2)nc1CSCC(=O)NC1CCN(Cc2ccccc2)CC1`, the IC50 is reported as 26.8 µM (inactive). `COc1ccc(CN(C)c2ccc(S(=O)(=O)N3CCN(C)CC3)cc2[N+](=O)[O-])cc1OC` was tested, and the IC50 was > 29.9 µM (inactive). In the case of `CCOc1cc(S(=O)(=O)NCc2ccncc2)ccc1Cl`, the IC50 is reported as > 29.9 µM (inactive). For `CC(C)(C)c1ccc(-n2ncc3c2CCCC3NC(=O)C2(C(N)=O)CC2)cc1` (configuration not stated), the IC50 was > 29.9 µM (inactive). For `O=C(CSc1nnc(Cn2nnc3ccccc32)o1)N(Cc1ccc(F)cc1)c1ccccc1`, the IC50 was > 29.9 µM (inactive). With `NC(=O)c1c(-c2ccc(Cl)cc2Cl)csc1NC(=O)Cc1ccccc1` the IC50 was > 29.9 µM (inactive). For `Cc1ccc(Oc2ccc(OCC(=O)Nc3ccncc3)cc2)cc1`, the IC50 was > 29.9 µM (inactive). For `COc1cccc2[nH]c3c(N4CCC(C)CC4)ncnc3c12`, the IC50 was > 29.9 µM (inactive). For `CNc1ccccc1C(C)(C)c1cc(-c2ccc(F)cc2)no1`, the IC50 was 19.6 µM (inactive). In the case of `COc1ccc(C(=O)CSc2nnc(Cn3cnc4ccccc43)o2)cc1`, the IC50 is reported as > 29.9 µM (inactive). `O=C(Cc1ccc(Cl)cc1Cl)Nc1ccncc1Cl` was tested, and the IC50 was > 29.9 µM (inactive). With `COc1ccc(OC)c(CCNC(=O)Cn2nc(C)c3c(C)n(-c4ccc(C)cc4)nc3c2=O)c1` the IC50 was > 29.9 µM (inactive). `Cn1nc(C(C)(C)C)cc1C(=O)NCc1ccc(N2CCCC2=O)cc1` was tested, and the IC50 was > 29.9 µM (inactive). With `O=S(=O)(NCc1ccncc1)c1ccc(Br)s1` the IC50 was > 29.9 µM (inactive). With `CCOC(=O)Cc1csc(NC(=O)c2cc(=O)c3ccccc3o2)n1` the IC50 was > 29.9 µM (inactive). For `CCOc1nc(C#N)nc(N2CCCCC2)n1`, the IC50 was > 29.9 µM (inactive). `Cc1[nH]c(=O)c(C#N)cc1-c1ccccc1` was tested, and the IC50 was > 29.9 µM (inactive). For `S=C(NCCc1ccccc1)Nc1cccc2cnccc12`, the IC50 was > 29.9 µM (inactive). `COc1ccc(-n2c(C)cc(C(=O)COC(=O)Cn3cnc4ccccc43)c2C)cc1` was tested, and the IC50 was > 29.9 µM (inactive). For `COc1ccc(CCNc2ncnc3sccc23)cc1OC`, the IC50 was > 29.9 µM (inactive). `O=C(Nc1nc(-c2ccc(Cl)cc2Cl)cs1)c1ccc(OCC2CCCO2)cc1` (configuration not stated) was tested, and the IC50 was > 29.9 µM (inactive). With `CC(C)(C)c1ccc(C(=O)Nc2ccc(Oc3cccnc3)nc2)cc1` the IC50 was > 29.9 µM (inactive). `CCOC(=O)c1[nH]c2ccc(OC)cc2c1NS(=O)(=O)c1ccc(Cl)s1` was tested, and the IC50 was > 29.9 µM (inactive). In the case of `Cc1cccc(Cl)c1NC(=O)N1CCCN(c2nc3ccc(Cl)cc3s2)CC1`, the IC50 is reported as > 29.9 µM (inactive). With `Fc1ccc(NC(=S)N2CCCN(c3ccc(C(F)(F)F)cn3)CC2)c(F)c1` the IC50 was > 29.9 µM (inactive). In the case of `N#Cc1cc(-c2ccccc2)oc1NC(=O)c1ccco1`, the IC50 is reported as > 29.9 µM (inactive). With `NC(=O)c1nnn(Cc2cc(Cl)c(C(=O)c3ccc(Cl)cc3)c(Cl)c2)c1N` the IC50 was > 29.9 µM (inactive). For `CC(=O)c1ccc(N2CCN(C(=S)Nc3ccc(Oc4ccccc4)cc3)CC2)cc1`, the IC50 was > 29.9 µM (inactive). In the case of `COc1cc(CSc2nnnn2-c2ccc(C)cc2)cc(OC)c1OC`, the IC50 is reported as > 29.9 µM (inactive). `CCCCc1ccc(NC(=O)c2ccc(N(C)S(C)(=O)=O)cc2)cc1` was tested, and the IC50 was > 29.9 µM (inactive). With `CC(=O)c1c(C)[nH]c(C(=O)COc2cc(C)ccc2C(C)C)c1C` the IC50 was > 29.9 µM (inactive). With `CSc1ccc(C(=O)C2CCCN(C(=O)CCc3c(C)nn(C)c3C)C2)cc1` (configuration not stated) the IC50 was > 29.9 µM (inactive). With `CC1CC(=O)NN=C1c1ccc(N)c([N+](=O)[O-])c1` (configuration not stated) the IC50 was > 29.9 µM (inactive). For `COc1ccc(CN2CCC(C(=O)Nc3ccc(Oc4ccccc4)nc3)CC2)cc1F`, the IC50 was > 29.9 µM (inactive). With `CCCOc1ccc(CSc2nc3ccccc3[nH]2)cc1` the IC50 was > 29.9 µM (inactive). With `Cc1cc(CSc2ccccc2)ccc1NC(=O)c1ccc(CN2CCOCC2)cc1` the IC50 was > 29.9 µM (inactive). With `CC1(C)CC2CC(C)(CN2S(=O)(=O)c2ccc(C(=O)Nc3cccc(S(=O)(=O)N4CCOCC4)c3)cc2)C1` (configuration not stated) the IC50 was > 29.9 µM (inactive). In the case of `CCCOC(=O)c1ccc(OCC(O)Cn2c(C)nc3ccccc32)cc1` (configuration not stated), the IC50 is reported as > 29.9 µM (inactive). In the case of `CC(C)(C)NC(=O)COC(=O)c1snc(C(=O)NC2CCCCC2)c1N`, the IC50 is reported as > 29.9 µM (inactive). In the case of `Nc1cc(-c2ccc(Br)cc2)nn1Cc1ccccc1`, the IC50 is reported as > 29.9 µM (inactive). In the case of `O=C(COc1ccc(C(=O)c2ccccc2)cc1)Nc1cccnc1`, the IC50 is reported as > 29.9 µM (inactive). In the case of `Cc1nn(C)c(Nc2ccc(Br)cc2)c1Br`, the IC50 is reported as > 29.9 µM (inactive).
